# In US7671052B2 (priority 2004, dated 2010):
# Like-named read-outs stand apart in the source and are kept apart here.
# Tests used:
# Male ICR mice = experiment: Catalepsy ring test; assay type: in vivo, mouse; conditions: for % catalepsy @ 30 mg/kg: 30 mg/kg i.p.; for % catalepsy @ 30 mg/kg / % catalepsy @ 100 mg/kg: 60 or 90 minutes after dosing; for % catalepsy @ 100 mg/kg: 100 mg/kg i.p.
# Method: The apparatus consisted of a 5.5 centimeter ring attached to a ring stand at a height of 16 centimeters. Male ICR mice (20-25 g) were placed on the ring 60 or 90 minutes after dosing (i.p.) with test compounds or vehicle. Normal behavior for a mouse would be to walk around and investigate the ring. Catalepsy was shown when the mouse remained motionless. The amount of time (in seconds, in a 5 minute test session) the mouse spent motionless was determined.
# Mice that fell or jumped were allowed 5 “escapes”. If 5 “escapes” happened before 2.5 minutes into the test, the data were disregarded. The immobility index (% catalepsy) was determined by the amount of time spent immobile divided by the length of the test (P. Little et al. Pharmac. Biochem. & Behavior 1989, 32, 661-666). Since the CB1 receptor is thought to be responsible for psychoactivity, the catalepsy ring test is an excellent in vivo screen for CB1 activity.
# Male Sprague-Dawley rats = experiment: Neuropathic pain assay: L5 spinal nerve ligation, tactile sensitivity (von Frey); assay type: in vivo, rat; conditions: L5 SNL rats
# Method: Male Sprague-Dawley rats (120-250 g, Harlan Laboratories, Columbus, Ohio) were housed in pairs and allowed free access to food and water throughout the study. Room temperature and humidity were maintained at 21° C. and 70%, respectively. Nerve injury was produced with tight ligation of the left L5 spinal nerve (Kim and Chung, 1992; LaBuda and Fuchs, 2000a, 2000b, LaBuda, Donahue and Fuchs, 2001). Briefly, animals were placed in the prone position to access the left L4-L6 spinal nerves. Under magnification, approximately one third of the L6 transverse process was removed. The L5 spinal nerve was identified and carefully dissected free from the adjacent L4 spinal nerve and then tightly ligated using 6-0 silk suture. The wound was treated with an antiseptic solution, the muscle layer was sutured, and the wound was closed with wound clips. Sham-operated surgical controls were prepared in the same manner, but the L5 spinal nerve was not […]. All housing conditions and experimental procedures were performed in accordance with the ethical guidelines of the IASP and the Adolor Corporation Animal Care and Use Committee.
# Seven to ten animals per group were used for all behavioral assays. After a 7-10 day post-surgical recovery, animals were tested for baseline sensitivity to tactile stimulation of both hindpaws. Allodynic animals were defined as animals having a threshold of less than 7.5 grams of pressure applied to the injured hindpaw. Tactile sensitivity was evaluated using von Frey monofilaments before and after treatment. […] Thirty minutes after treatment, tactile sensitivity was evaluated. Five to seven days later, animals were tested using a different compound. Each animal was tested three times with different compounds. All behavioral testing was performed between 9:00 AM and 5:00 PM in a well-illuminated room with white background noise.
# Animals were placed in a Plexiglas chamber (20 cm×10.5 cm×40.5 cm) and habituated for 15 minutes. The chamber was positioned on top of a mesh screen so that von Frey monofilaments could be presented to the plantar surfaces of both hindpaws. Measurements of tactile sensitivity for each hindpaw were obtained using the up/down method (Dixon, 1980) with seven von Frey monofilaments (0.04, 0.07, 0.16, 0.4, 1, 6, and 15 grams). Each trial started with a von Frey force of 0.4 g delivered to the right hindpaw and then the left hindpaw for approximately 1-2 sec each. If there was no withdrawal response, the next higher force was delivered. If there was a response, the next lower force was delivered. This procedure was performed until no response was made at the highest force (15 grams) or until four stimuli were administered following the initial response. The 50% paw withdrawal threshold for each paw was calculated using the following formula: [Xth]log=[vFr]log+ky where [vFr] is the force of the last von Frey filament used, k=0.2249 which is the average interval (in log units) between the von Frey monofilaments, and y is a value that depends upon the pattern of withdrawal responses (Dixon, 1980). […] Testing for tactile sensitivity was performed twice and the mean 50% withdrawal value assigned as the tactile sensitivity for the right and left paws for each animal.
# Tactile sensitivity for both hindpaws before and after treatments were analyzed using one-way analysis of variance (ANOVA) followed by post-hoc comparisons (protected t-test) for group differences. An alpha level of 0.05 was used for all analyses.
# hCB1 [1] = biological target: T1, hCB1 (Homo sapiens, UniProt P21554); experiment: Inhibition of [3H]CP55940 binding to hCB1 receptor membranes; conditions: human cloned CB1 receptor
# T1 construct: expressed in transfected cells; host or cells: CHO-K1 (Chinese hamster ovary), stably transfected; membrane preparation
# Method: (§1) Chinese hamster ovary cells (CHO-K1), stably transfected with either hCB1 or hCB2, were washed two times with cold PBS, scraped from 500 cm^2 tissue culture plates, and pelleted by centrifugation at 1000×g for 10 min. The supernatant was discarded and the pellet was re-suspended in Tris assay buffer (50 mM Tris HCl, pH 7.8, containing 1.0 mM EGTA, 5.0 mM MgCl2, 10 μg/mL leupeptin, 10 μg/mL pepstatin A, 200 μg/mL bacitracin, and 0.5 μg/mL aprotinin), homogenized with a Polytron homogenizer (Brinkmann) at a setting of 1 for 20 sec and centrifuged at 38,000×g for 20 min at 4° C. The pellet was re-suspended in Tris assay buffer and aliquots of 1 mg protein/mL were stored at −80° C. for further use.
# Binding assays were performed by incubating 0.2-0.6 nM (34,000-100,000 dpm) of [^3H]CP55940 with membranes prepared from cells expressing cloned human CB1 or CB2 receptors in buffer A (50 mM Tris HCl, pH 7.0, 5.0 mM MgCl2, 1.0 mM EGTA and 1.0 mg/mL fatty acid free bovine serum albumin). […] The filters were rinsed 6 times with one mL of cold wash buffer (50 mM Tris HCl, pH 7.0, 5.0 mM MgCl2, 1.0 mM EGTA and 0.75 mg/mL fatty acid free bovine serum albumin), 30 μL of MicroScint 20 was added to each filter and the radioactivity on the filters determined by scintillation spectroscopy. Nonspecific binding was determined in the presence of 10 μM WIN55212-2. […]
# hCB2 [2] = biological target: T2, hCB2 (Homo sapiens, UniProt P34972); experiment: Inhibition of [3H]CP55940 binding to hCB2 receptor membranes
# T2 construct: expressed in transfected cells; host or cells: CHO-K1 (Chinese hamster ovary), stably transfected; membrane preparation
# hCB1 [3] = biological target: T1, hCB1; experiment: hCB1-mediated stimulation of [35S]GTPγS binding; assay type: biochemical; conditions: read-out: in vitro CB1 receptor agonist potency (EC50)
# Method: as §1
# hCB1-mediated stimulation of [^35S]GTPγS binding was measured in a mixture containing 100-150 pM [^35S]GTPγS, 150 mM NaCl, […], 0.4 mM DTT, 1 mM EGTA, 1 mg/mL fatty acid free BSA, 25 μg of membrane protein and agonist in a total volume of 250 μL of buffer A in 96 well Basic Flashplates (Perkin Elmer). After incubation at room temperature for 2 hours the plates were centrifuged at 800×g at 4° C. for 5 min and the radioactivity bound to the membranes was determined by scintillation spectrometry using the Topcount (Perkin Elmer). […]
# hCB2 [4] = biological target: T2, hCB2; experiment: hCB2-mediated stimulation of [35S]GTPγS binding; assay type: biochemical; conditions: read-out: in vitro CB2 receptor agonist potency (EC50)
# Method: hCB2-mediated [^35S]GTPγS binding was measured in the same way except the assay mixture contained 10 mM GDP and the incubation time was 6 hours. […] After incubation at 30° C. for 2 hours, the plates were centrifuged at 800×g at 4° C. for 5 min and the radioactivity bound to the membrane was determined by scintillation spectrometry using the Topcount (Perkin Elmer).
# EC50 values in functional assays were also derived from automated nonlinear regression analysis of sigmoidal titration curves using the three-parameter modification of the four-parameter equation.
# [5] = Table 3, 10 mg/kg, n = 7-8/group
# [6] = Table 3, 2.5 mg/kg i.p., n = 7-8/group
# T2 sequence (P34972 whole entry): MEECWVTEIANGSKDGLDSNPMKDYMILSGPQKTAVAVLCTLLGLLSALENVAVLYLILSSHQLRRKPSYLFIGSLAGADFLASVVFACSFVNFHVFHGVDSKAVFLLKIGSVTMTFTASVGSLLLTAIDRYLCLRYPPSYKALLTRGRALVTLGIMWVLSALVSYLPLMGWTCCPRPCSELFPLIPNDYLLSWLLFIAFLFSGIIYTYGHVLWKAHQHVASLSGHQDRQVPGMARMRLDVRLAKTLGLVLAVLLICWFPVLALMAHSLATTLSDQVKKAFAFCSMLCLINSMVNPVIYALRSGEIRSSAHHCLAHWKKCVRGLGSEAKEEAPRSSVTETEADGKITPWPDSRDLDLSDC
# T1 sequence (P21554 whole entry): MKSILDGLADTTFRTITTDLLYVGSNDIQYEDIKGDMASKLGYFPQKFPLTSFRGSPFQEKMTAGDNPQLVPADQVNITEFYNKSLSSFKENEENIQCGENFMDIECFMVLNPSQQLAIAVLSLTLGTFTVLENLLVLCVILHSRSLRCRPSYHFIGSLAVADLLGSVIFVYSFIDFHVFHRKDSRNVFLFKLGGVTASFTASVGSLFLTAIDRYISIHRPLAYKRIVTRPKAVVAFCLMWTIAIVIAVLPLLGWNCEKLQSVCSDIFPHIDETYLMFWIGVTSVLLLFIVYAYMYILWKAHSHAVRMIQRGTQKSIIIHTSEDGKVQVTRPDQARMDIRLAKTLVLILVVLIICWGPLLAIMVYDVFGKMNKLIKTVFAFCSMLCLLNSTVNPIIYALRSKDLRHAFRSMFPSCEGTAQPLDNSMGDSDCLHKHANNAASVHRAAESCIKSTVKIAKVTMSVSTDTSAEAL
smiles,measurement,setting,value
"CCNC(=O)NCc1cccc(-c2ccc(C(C)(C)COCCC(=O)N3CCOCC3)cc2O)c1 [Compound 11, 1-{4′-[1,1-Dimethyl-2-(3-morpholin-4-yl-3-oxo-propoxy)-ethyl]-2′-hydroxy-biphenyl-3-yl-methyl}-3-ethyl-urea]",% catalepsy @ 30 mg/kg,Male ICR mice,6.65 ± 1.87%
same,% catalepsy @ 100 mg/kg,Male ICR mice,18.80 ± 3.33%
CC(C)(CCCCC(=O)N1CCOCC1)c1ccc(-c2cccc(CNS(C)(=O)=O)c2)c(O)c1 [Compound 71],% catalepsy @ 30 mg/kg,Male ICR mice,3.38 ± 2.75%
same,% catalepsy @ 100 mg/kg,Male ICR mice,24.65 ± 3.36%
"CCNC(=O)NCc1cccc(-c2ccc(C(C)(C)CCCCC(=O)N3CCOCC3)cc2O)c1 [Compound 20, 1-[4′-(1,1-Dimethyl-6-morpholin-4-yl-6-oxo-hexyl)-2′-hydroxy-biphenyl-3-yl-methyl]-3-ethyl-urea]",% catalepsy @ 30 mg/kg,Male ICR mice,3.07 ± 1.15%
same,% catalepsy @ 100 mg/kg,Male ICR mice,5.05 ± 1.81%
same,Threshold,"Male Sprague-Dawley rats; Table 2, 10 mg/kg i.p., n = 8",12.16 ± 2.41 g
same,Threshold,"Male Sprague-Dawley rats; Table 2, 30 mg/kg i.p., n = 8",12.02 ± 2.54 g
same,Threshold,"Male Sprague-Dawley rats; Table 3, 3 mg/kg, n = 7-8/group",9.14 ± 3.36 g
same,Threshold,Male Sprague-Dawley rats; [5],16.69 ± 1.19 g
"CC(C)(CCCCC(=O)N1CCOCC1)c1ccc(-c2cccc(CNC(=O)C3CCCO3)c2)c(O)c1 (centres unmarked) [Compound 41, Tetrahydrofuran-2-carboxylic acid [4′-(1,1-dimethyl-6-morpholin-4-yl-6-oxo-hexyl)-2′-hydroxy-biphenyl-3-ylmethyl]-amide]",% catalepsy @ 30 mg/kg,Male ICR mice,13.07 ± 2.85%
same,% catalepsy @ 100 mg/kg,Male ICR mice,58.78 ± 7.95%
"Cc1c(C(=O)c2cccc3ccccc23)c2cccc3c2n1[C@H](CN1CCOCC1)CO3 [WIN+, WIN55,212-2, reference compound]",% catalepsy,Male ICR mice; WIN @ 10 mg/kg i.p.,51.64 ± 2.69%
same,Threshold,Male Sprague-Dawley rats; [6],15.03 ± 1.70 g
"Cc1c(C(=O)c2cccc3ccccc23)c2cccc3c2n1[C@@H](CN1CCOCC1)CO3 [WIN−, WIN55,212-3, reference compound]",Threshold,Male Sprague-Dawley rats; [6],6.25 ± 1.19 g
"CCCCOCC(C)(C)c1ccc(-c2ccccc2CNC(=O)NCC)c(O)c1 [Compound 12, 1-[4′-(2-Butoxy-1,1-dimethyl-ethyl)-2′-hydroxy-biphenyl-2-ylmethyl]-3-ethyl-urea]",Ki,hCB1 [1],1.6 nM
same,Ki,"hCB2 [2]; human cloned CB2 receptor, read-out: Ki(CB2)",0.56 nM
same,EC50,hCB1 [3],15.5 nM
same,EC50,hCB2 [4],15.2 nM
"CCCCOCC(C)(C)c1ccc(-c2cccc(CNC(=O)NCCC)c2)c(O)c1 [Compound 15, 1-[4′-(2-Butoxy-1,1-dimethyl-ethyl)-2′-hydroxy-biphenyl-3-ylmethyl]-3-propyl-urea]",Ki,hCB1 [1],1.1 nM
same,Ki,hCB2 [2],0.4 nM
same,EC50,hCB1 [3],29.1 nM
same,EC50,hCB2 [4],5.1 nM
"CCNC(=O)NCc1cccc(-c2ccc(C(C)(C)CCCNC(=O)C(C)(C)C)cc2O)c1 [Compound 35, N-(4-{3′-[(3-Ethyl-ureido)-methyl]-2-hydroxy-biphenyl-4-yl}-4-methyl-pentyl)-2,2-dimethyl-propionamide]",Threshold,Male Sprague-Dawley rats; [5],10.96 ± 2.66 g
"CCNC(=O)NCc1cccc(-c2ccc(C(C)(C)COCCOC)cc2O)c1 [Compound 17, 1-Ethyl-3-{2′-hydroxy-4′-[2-(2-methoxy-ethoxy)-1,1-dimethyl-ethyl]-biphenyl-3-ylmethyl}-urea]",% catalepsy @ 30 mg/kg,Male ICR mice,12.21 ± 2.79%
same,% catalepsy @ 100 mg/kg,Male ICR mice,47.93 ± 5.98%
